Measurements: ChEMBL document CHEMBL1201862, “PubChem BioAssay data set” (2004)
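Each compound was tested at five concentrations against cells in 96-well plates for 48 hours. GI50 = concentration required for 50% inhibition of growth.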 Active and inactive are the calls of the source. Cut-off read from the data, not from the text of the source: active = GI50 up to about 1.1 µM and inactive = higher.

Tests used:
Assay in all cases: NCI anticancer screen, dose series, 48 h
TK-10 = tested on: TK-10
UACC-62 = tested on: UACC-62
KM-20L2 = tested on: KM-20L2
OVCAR-8 = tested on: OVCAR-8
SF-539 = tested on: SF-539
ACHN = tested on: ACHN
RXF 393 = tested on: RXF 393
U-251 = tested on: U-251
SNB-78 = tested on: SNB-78
LXFL 529 = tested on: LXFL 529
SK-OV-3 = tested on: SK-OV-3
SNB-19 = tested on: SNB-19
HOP-92 = tested on: HOP-92
HOP-62 = tested on: HOP-62
DMS-114 = tested on: DMS-114
HL-60 = tested on: HL-60
EKVX = tested on: EKVX
Malme-3M = tested on: Malme-3M
DLD-1 = tested on: DLD-1
MOLT-4 = tested on: MOLT-4
RPMI-8226 = tested on: RPMI-8226
OVCAR-4 = tested on: OVCAR-4
M14 = tested on: M14
OVCAR-5 = tested on: OVCAR-5
SF-295 = tested on: SF-295
SW-620 = tested on: SW-620
SK-MEL-28 = tested on: SK-MEL-28
SN12C = tested on: SN12C
UO-31 = tested on: UO-31
CAKI-1 = tested on: CAKI-1
K562 = tested on: K562
NCI-H23 = tested on: NCI-H23
IGROV-1 = tested on: IGROV-1
SK-MEL-5 = tested on: SK-MEL-5
HCC 2998 = tested on: HCC 2998
SF-268 = tested on: SF-268
COLO 205 = tested on: COLO 205
786-0 = tested on: 786-0
OVCAR-3 = tested on: OVCAR-3
NCI-H460 = tested on: NCI-H460
SK-MEL-2 = tested on: SK-MEL-2
A498 = tested on: A498
HCT-116 = tested on: HCT-116
UACC-257 = tested on: UACC-257
M19-MEL = tested on: M19-MEL
KM12 = tested on: KM12
HCT-15 = tested on: HCT-15
NCI-H226 = tested on: NCI-H226
HT-29 = tested on: HT-29
A549 = tested on: A549
NCI-H522 = tested on: NCI-H522
LOX IMVI = tested on: LOX IMVI
CCRF-CEM = tested on: CCRF-CEM
BT-549 = tested on: BT-549
Hs-578T = tested on: Hs-578T
T47D = tested on: T47D
MDA-MB-231 = tested on: MDA-MB-231
MDA-MB-435 = tested on: MDA-MB-435
PC-3 = tested on: PC-3
NCI/ADR-RES = tested on: NCI/ADR-RES
SR = tested on: SR
MDA-N = tested on: MDA-N
DU-145 = tested on: DU-145
MCF7 = tested on: MCF7
SNB-75 = tested on: SNB-75

SMILES: CC1=NN(C(=O)c2ccc(Cl)cc2)C(=O)/C1=C/c1cccc(O)c1
- GI50 (TK-10): > 100 µM (inactive)
- GI50 (UACC-62): > 100 µM (inactive)
- GI50 (KM-20L2): > 100 µM (inactive)
- GI50 (OVCAR-8): > 100 µM (inactive)
- GI50 (SF-539): > 100 µM (inactive)
- GI50 (ACHN): > 100 µM (inactive)
- GI50 (RXF 393): > 100 µM (inactive)
- GI50 (U-251): > 100 µM (inactive)
- GI50 (SNB-78): > 100 µM (inactive)
- GI50 (LXFL 529): > 100 µM (inactive)
- GI50 (SK-OV-3): > 100 µM (inactive)
- GI50 (SNB-19): > 100 µM (inactive)
- GI50 (HOP-92): > 100 µM (inactive)
- GI50 (HOP-62): > 100 µM (inactive)
- GI50 (DMS-114): > 100 µM (inactive)
- GI50 (HL-60): > 100 µM (inactive)
- GI50 (EKVX): > 100 µM (inactive)
- GI50 (Malme-3M): > 100 µM (inactive)
- GI50 (DLD-1): > 100 µM (inactive)
- GI50 (MOLT-4): > 100 µM (inactive)
- GI50 (RPMI-8226): > 100 µM (inactive)
- GI50 (OVCAR-4): > 100 µM (inactive)
- GI50 (M14): > 100 µM (inactive)
- GI50 (OVCAR-5): > 100 µM (inactive)
- GI50 (SF-295): > 100 µM (inactive)
- GI50 (SW-620): > 100 µM (inactive)
- GI50 (SK-MEL-28): > 100 µM (inactive)
- GI50 (SN12C): > 100 µM (inactive)
- GI50 (UO-31): > 100 µM (inactive)
- GI50 (CAKI-1): > 100 µM (inactive)
- GI50 (K562): > 100 µM (inactive)
- GI50 (NCI-H23): > 100 µM (inactive)
- GI50 (IGROV-1): > 100 µM (inactive)
- GI50 (SK-MEL-5): > 100 µM (inactive)
- GI50 (HCC 2998): > 100 µM (inactive)
- GI50 (SF-268): > 100 µM (inactive)
- GI50 (COLO 205): > 100 µM (inactive)
- GI50 (786-0): > 100 µM (inactive)
- GI50 (OVCAR-3): > 100 µM (inactive)
- GI50 (NCI-H460): > 100 µM (inactive)
- GI50 (SK-MEL-2): > 100 µM (inactive)
- GI50 (A498): > 100 µM (inactive)
- GI50 (HCT-116): > 100 µM (inactive)
- GI50 (UACC-257): > 100 µM (inactive)
- GI50 (M19-MEL): > 100 µM (inactive)
- GI50 (KM12): > 100 µM (inactive)
- GI50 (HCT-15): > 100 µM
- GI50 (NCI-H226): > 100 µM (inactive)
- GI50 (HT-29): > 100 µM (inactive)
- GI50 (A549): > 100 µM (inactive)
- GI50 (NCI-H522): > 100 µM (inactive)
- GI50 (LOX IMVI): > 100 µM (inactive)
- GI50 (CCRF-CEM): > 100 µM (inactive)

SMILES: O=C(Oc1ccccc1)c1cc2cc(CCl)ccc2oc1=O
- GI50 (TK-10): 17.5 µM (inactive)
- GI50 (BT-549): 64.3 µM (inactive)
- GI50 (Hs-578T): 16.9 µM (inactive)
- GI50 (UACC-62): 13.4 µM (inactive)
- GI50 (OVCAR-8): 47.2 µM (inactive)
- GI50 (SF-539): 30.6 µM (inactive)
- GI50 (ACHN): 8.99 µM (inactive)
- GI50 (RXF 393): 13.5 µM (inactive)
- GI50 (U-251): 44.6 µM (inactive)
- GI50 (SK-OV-3): 28.6 µM (inactive)
- GI50 (SNB-19): 71.6 µM (inactive)
- GI50 (HOP-92): 14.7 µM (inactive)
- GI50 (T47D): 15.6 µM (inactive)
- GI50 (HOP-62): 26.5 µM (inactive)
- GI50 (HL-60): 18.2 µM (inactive)
- GI50 (EKVX): 17.6 µM (inactive)
- GI50 (Malme-3M): 1.74 µM (inactive)
- GI50 (MDA-MB-231): 32.1 µM (inactive)
- GI50 (MOLT-4): 18.8 µM (inactive)
- GI50 (RPMI-8226): 33 µM (inactive)
- GI50 (MDA-MB-435): 19.4 µM (inactive)
- GI50 (OVCAR-4): 24.8 µM (inactive)
- GI50 (M14): 13.1 µM (inactive)
- GI50 (OVCAR-5): 97.7 µM (inactive)
- GI50 (SF-295): 32.6 µM (inactive)
- GI50 (SW-620): 61.9 µM (inactive)
- GI50 (SK-MEL-28): 13.3 µM (inactive)
- GI50 (PC-3): 14.2 µM (inactive)
- GI50 (SN12C): 23.1 µM (inactive)
- GI50 (UO-31): 20.4 µM (inactive)
- GI50 (NCI/ADR-RES): 30 µM (inactive)
- GI50 (CAKI-1): 14.5 µM (inactive)
- GI50 (SR): 28.1 µM (inactive)
- GI50 (K562): 5.61 µM (inactive)
- GI50 (NCI-H23): 15.5 µM (inactive)
- GI50 (IGROV-1): 23.3 µM (inactive)
- GI50 (SK-MEL-5): 12.8 µM (inactive)
- GI50 (HCC 2998): 20.5 µM (inactive)
- GI50 (SF-268): 23.2 µM (inactive)
- GI50 (MDA-N): 19.9 µM (inactive)
- GI50 (COLO 205): 17.8 µM (inactive)
- GI50 (786-0): 19.4 µM (inactive)
- GI50 (OVCAR-3): 29.1 µM (inactive)
- GI50 (NCI-H460): 20.3 µM (inactive)
- GI50 (SK-MEL-2): 3.17 µM (inactive)
- GI50 (A498): 19.1 µM (inactive)
- GI50 (HCT-116): 34.4 µM (inactive)
- GI50 (UACC-257): 11.6 µM (inactive)
- GI50 (KM12): 63.4 µM (inactive)
- GI50 (HCT-15): 31.5 µM
- GI50 (NCI-H226): > 100 µM (inactive)
- GI50 (HT-29): 24.4 µM (inactive)
- GI50 (DU-145): 27.7 µM (inactive)
- GI50 (MCF7): 20.1 µM (inactive)
- GI50 (SNB-75): 21.5 µM (inactive)
- GI50 (A549): 25.8 µM (inactive)
- GI50 (NCI-H522): 6.17 µM (inactive)
- GI50 (LOX IMVI): 49.4 µM (inactive)
- GI50 (CCRF-CEM): 24.3 µM (inactive)
